Here are results for 3 compounds from ChEMBL document CHEMBL4414645, “Development of Robust 17(R),18(S)-Epoxyeicosatetraenoic Acid (17,18-EEQ) Analogues as Potential Clinical Antiarrhythmic Agents” (J Med Chem, 2019).

Molecules are shown by their SMILES. ≈ marks a conversion by molar mass, not a printed value.

Series [1] in a line: Intrinsic clearance in human hepatocytes assessed per million cells at 1 uM measured up to 180 mins by LC-ESI-MS/MS analysis. It is filed as ADME, cell-based, Hepatocyte. The conditions noted are these: read-out: CLH.
For series [2], the target named is T1, Bifunctional epoxide hydrolase 2 (Homo sapiens) (UniProt P34913).
T1 sequence (whole entry): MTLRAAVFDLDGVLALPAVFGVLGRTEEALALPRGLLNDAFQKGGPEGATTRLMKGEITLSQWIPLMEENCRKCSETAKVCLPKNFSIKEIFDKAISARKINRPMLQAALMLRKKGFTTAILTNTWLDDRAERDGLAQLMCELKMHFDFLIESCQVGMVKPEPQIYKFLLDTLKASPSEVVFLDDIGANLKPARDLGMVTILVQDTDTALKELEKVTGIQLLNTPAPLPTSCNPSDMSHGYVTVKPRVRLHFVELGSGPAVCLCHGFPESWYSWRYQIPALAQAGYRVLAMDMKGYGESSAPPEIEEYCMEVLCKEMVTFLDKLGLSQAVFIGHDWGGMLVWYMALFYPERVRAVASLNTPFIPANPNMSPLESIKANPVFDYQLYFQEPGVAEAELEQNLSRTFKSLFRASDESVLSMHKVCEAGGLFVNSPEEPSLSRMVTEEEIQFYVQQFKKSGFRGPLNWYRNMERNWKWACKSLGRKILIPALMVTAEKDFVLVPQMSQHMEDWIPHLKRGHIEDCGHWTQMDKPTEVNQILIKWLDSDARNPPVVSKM
In words: Inhibition of N-terminal His-tagged recombinant human soluble epoxide hydrolase (2 to 555 residues) expressed in Sf21 insect cells at 10 uM using as 14,15-EET as substrate after 10 mins by reversed-phase HPLC assay relative to control.

The nature of series [3]: Protein binding in human plasma at 10 uM incubated for 60 mins by LC-ESI-MS/MS analysis. Type of series: ADME, cell-free. The following applies: read-out: PPB (converted).
In series [4] the target is T1, Bifunctional epoxide hydrolase 2 (Homo sapiens). The following applies: Sf21, at 1 µM.
Description: Inhibition of N-terminal His-tagged recombinant human soluble epoxide hydrolase (2 to 555 residues) expressed in Sf21 insect cells at 1 uM using as 14,15-EET as substrate after 10 mins by reversed-phase HPLC assay relative to control
Series [5] addresses T2, Cytochrome P450 2C8 (Homo sapiens, UniProt P10632).
T2 sequence (P10632 whole entry): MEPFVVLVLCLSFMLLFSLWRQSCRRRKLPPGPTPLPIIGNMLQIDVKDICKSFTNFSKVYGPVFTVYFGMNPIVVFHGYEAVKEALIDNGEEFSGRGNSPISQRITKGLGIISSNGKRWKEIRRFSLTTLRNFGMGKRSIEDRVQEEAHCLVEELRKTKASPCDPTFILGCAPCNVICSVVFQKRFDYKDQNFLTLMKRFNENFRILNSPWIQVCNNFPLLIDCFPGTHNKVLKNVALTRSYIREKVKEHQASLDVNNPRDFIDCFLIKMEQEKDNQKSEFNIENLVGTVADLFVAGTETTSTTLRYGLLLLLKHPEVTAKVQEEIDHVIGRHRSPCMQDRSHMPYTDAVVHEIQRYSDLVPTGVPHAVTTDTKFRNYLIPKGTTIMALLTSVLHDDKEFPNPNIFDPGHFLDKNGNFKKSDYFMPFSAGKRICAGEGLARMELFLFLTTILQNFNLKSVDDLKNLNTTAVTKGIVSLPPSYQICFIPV
In words: Inhibition of human CYP2C8 by fluorescence method. Type of series: ADME.

Series [6] can be described thus: Apparent permeability across apical to basolateral side in human Caco2 cells at 10 uM after 15 to 90 mins by LC-ESI-MS/MS analysis. Type of series: ADME, cell-based. The following applies: Caco-2. On the technique in general: Passage across Caco-2 layers is used to estimate intestinal permeability.
Series [7] concerns the target T3, Cytochrome P450 2J2 (Homo sapiens, UniProt P51589).
T3 sequence (P51589 whole entry): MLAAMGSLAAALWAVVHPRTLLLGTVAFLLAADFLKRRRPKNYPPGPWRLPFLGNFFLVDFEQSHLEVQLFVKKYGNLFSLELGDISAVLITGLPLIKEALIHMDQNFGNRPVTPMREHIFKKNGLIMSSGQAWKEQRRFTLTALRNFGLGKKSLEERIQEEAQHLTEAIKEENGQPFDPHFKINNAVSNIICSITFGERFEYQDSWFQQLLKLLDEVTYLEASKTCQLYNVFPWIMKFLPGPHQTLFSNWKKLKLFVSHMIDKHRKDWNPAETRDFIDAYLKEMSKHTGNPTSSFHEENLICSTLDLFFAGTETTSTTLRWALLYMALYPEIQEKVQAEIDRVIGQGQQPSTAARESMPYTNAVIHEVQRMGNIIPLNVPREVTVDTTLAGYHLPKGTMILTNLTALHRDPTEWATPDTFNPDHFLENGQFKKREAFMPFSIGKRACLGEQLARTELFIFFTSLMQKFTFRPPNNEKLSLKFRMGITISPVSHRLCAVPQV
Description: Inhibition of recombinant human CYP2J2 expressed in baculovirus infected insect cells co-expressing NADPH-CYP reductase and cytochrome b5 assessed as reduction in CYP2J2-mediated EPA epoxidation by measuring sum of EEQ and DiHETEs level at 1 to 50 uM using EPA as substrate preincubated for 5 mins followed by NADPH addition and measured after 15 mins by LCMS/MS analysis. Type of series: ADME. The conditions noted are these: recombinant enzyme, 0.25 h.

Series [8] is described as follows: Negative chronotropic activity in Wistar rat neonatal cardiomyocytes assessed as decrease in basal beating rate after 7 mins by inverted microscopic method. Type of series: functional, cell-based.
Series [9] is described as follows: Stability of compound in HEPES buffer assessed as parent compound remaining at 1 uM after 180 mins by LC-ESI-MS/MS analysis. It is filed as physicochemical. The conditions noted are these: read-out: Stability.
For series [10], the target named is Cytochrome P450 2C9 (Homo sapiens, UniProt P11712). In words: Inhibition of human CYP2C9 by fluorescence method. It is filed as ADME.
Series [11] is described as follows: Tmax in Sprague-Dawley (RjHan:SD) rat at 3 mg/kg, po administered via gavage by LC-MS analysis. It is filed as ADME, organism-based. The following applies: in vivo.
The nature of series [12]: Half life in human hepatocytes at 1 uM measured up to 180 mins by LC-ESI-MS/MS analysis. It is filed as ADME, cell-based, Hepatocyte.
Series [13] in a line: Negative chronotropic activity in Wistar rat neonatal cardiomyocytes assessed as changes to basal beating rate after 7 mins by inverted microscopic method. It is filed as functional.
Series [14] deals with Cytochrome P450 3A4 (Homo sapiens, UniProt P08684). Description: Inhibition of recombinant human CYP3A4 expressed in supersomes using 7-benzyloxyquinoline as substrate by fluorescence method. Type of series: ADME.
Series [15] in a line: Apparent permeability across basolateral to apical side in human Caco2 cells at 10 uM after 15 to 90 mins by LC-ESI-MS/MS analysis. It is filed as ADME, cell-based. The following applies: Caco-2.
Series [16] concerns the target Cytochrome P450 2C19 (Homo sapiens, UniProt P33261). In words: Inhibition of human CYP2C19 by fluorescence method. It is filed as ADME.
Series [17] concerns the target Cytochrome P450 2D6 (Homo sapiens, UniProt P10635). In words: Inhibition of human CYP2D6 by fluorescence method. Type of series: ADME.
Series [18] can be described thus: Aqueous solubility of the compound in pH 7.4 potassium phosphate buffer at 2 mg after 1 to 24 hrs by RP-HPLC method. The following applies: potassium phosphate buffer, read-out: solubility. Type of series: physicochemical.
Series [19] can be described thus: n-Octanol-Tris/phosphoric acid buffer buffer distribution coefficient, log D of the compound at pH 7.4 shaken for 30 mins and measured after 24 hrs by UV-HPLC method. Type of series: physicochemical.
Series [20] can be described thus: Stability in human plasma at 10 uM measured over 240 mins by LC-ESI-MS/MS analysis. It is filed as ADME, cell-free. The conditions noted are these: 4 h.

Cytochrome P450 3A4, sequence (P08684 whole entry): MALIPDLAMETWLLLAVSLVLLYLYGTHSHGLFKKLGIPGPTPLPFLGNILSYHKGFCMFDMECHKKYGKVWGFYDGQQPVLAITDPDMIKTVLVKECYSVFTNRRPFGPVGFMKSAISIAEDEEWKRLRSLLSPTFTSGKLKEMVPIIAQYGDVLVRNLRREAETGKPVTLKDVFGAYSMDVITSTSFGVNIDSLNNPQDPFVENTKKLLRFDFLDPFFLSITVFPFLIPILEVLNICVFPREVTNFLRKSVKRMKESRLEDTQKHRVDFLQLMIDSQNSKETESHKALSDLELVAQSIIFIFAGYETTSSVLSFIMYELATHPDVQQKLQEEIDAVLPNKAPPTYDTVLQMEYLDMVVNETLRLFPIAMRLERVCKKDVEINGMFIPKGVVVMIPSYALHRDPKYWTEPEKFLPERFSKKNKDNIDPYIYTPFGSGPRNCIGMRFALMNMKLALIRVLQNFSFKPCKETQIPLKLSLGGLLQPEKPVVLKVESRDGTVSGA
Cytochrome P450 2D6, sequence (P10635 whole entry): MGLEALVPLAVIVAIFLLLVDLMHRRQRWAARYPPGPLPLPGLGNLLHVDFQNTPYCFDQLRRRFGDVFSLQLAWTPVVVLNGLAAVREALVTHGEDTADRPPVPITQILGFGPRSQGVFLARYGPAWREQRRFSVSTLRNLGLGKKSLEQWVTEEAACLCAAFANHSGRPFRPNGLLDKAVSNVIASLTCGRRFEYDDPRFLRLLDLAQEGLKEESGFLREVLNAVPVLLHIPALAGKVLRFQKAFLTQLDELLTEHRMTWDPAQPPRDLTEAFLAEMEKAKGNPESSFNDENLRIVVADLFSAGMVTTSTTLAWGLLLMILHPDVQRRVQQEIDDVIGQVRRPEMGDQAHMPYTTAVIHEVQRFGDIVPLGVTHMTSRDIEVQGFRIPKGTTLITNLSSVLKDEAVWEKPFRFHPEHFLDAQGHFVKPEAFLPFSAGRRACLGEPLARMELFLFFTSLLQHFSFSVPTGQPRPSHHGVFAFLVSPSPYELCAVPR
Cytochrome P450 2C19, sequence (P33261 whole entry): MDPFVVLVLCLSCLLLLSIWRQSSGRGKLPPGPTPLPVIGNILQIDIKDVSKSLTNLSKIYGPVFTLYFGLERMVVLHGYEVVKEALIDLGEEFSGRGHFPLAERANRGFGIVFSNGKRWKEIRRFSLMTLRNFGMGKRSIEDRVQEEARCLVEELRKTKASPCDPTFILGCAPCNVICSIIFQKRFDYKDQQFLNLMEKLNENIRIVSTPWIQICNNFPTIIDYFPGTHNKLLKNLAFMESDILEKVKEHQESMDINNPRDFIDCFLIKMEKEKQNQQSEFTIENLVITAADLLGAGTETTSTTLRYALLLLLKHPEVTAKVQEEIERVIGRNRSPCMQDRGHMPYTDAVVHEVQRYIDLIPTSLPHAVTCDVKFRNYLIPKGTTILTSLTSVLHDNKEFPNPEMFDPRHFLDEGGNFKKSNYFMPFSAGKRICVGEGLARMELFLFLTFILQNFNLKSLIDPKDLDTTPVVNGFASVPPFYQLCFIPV
Cytochrome P450 2C9, sequence (P11712 whole entry): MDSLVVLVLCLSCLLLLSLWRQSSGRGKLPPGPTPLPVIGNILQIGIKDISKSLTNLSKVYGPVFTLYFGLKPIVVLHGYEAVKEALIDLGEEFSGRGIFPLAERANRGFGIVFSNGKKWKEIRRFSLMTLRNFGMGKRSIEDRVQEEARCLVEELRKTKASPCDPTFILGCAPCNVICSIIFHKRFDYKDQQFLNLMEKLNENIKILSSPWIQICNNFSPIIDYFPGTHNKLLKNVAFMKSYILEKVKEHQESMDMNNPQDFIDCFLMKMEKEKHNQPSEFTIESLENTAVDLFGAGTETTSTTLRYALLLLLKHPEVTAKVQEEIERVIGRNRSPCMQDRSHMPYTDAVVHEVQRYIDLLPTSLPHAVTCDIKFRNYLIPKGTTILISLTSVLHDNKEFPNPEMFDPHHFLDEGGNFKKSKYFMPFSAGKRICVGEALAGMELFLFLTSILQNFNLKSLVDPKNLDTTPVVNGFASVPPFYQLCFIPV

For `CNC(=O)C(=O)NCCCC/C=C\CCCCCCCCCc1nnn[nH]1`, the hepatocyte CLint at 1 µM in series [1] was determined as 4.77 µL/min/1e6 cells. Further, the inhibition was 1.9% in series [2] and -1.3% in series [4]. Further, in series [3], the fraction unbound at 1 h, 10 µM is 0.0003. The IC50 in [5] was over 50 µM; in [10], 5.4 µM; in [14], 4.7 µM; in series [16] it was 0.21 µM; in [17], 43.2 µM. Besides, the Papp A→B at 10 µM in series [6] turned out to be 10 ×10⁻⁶ cm/s. Further, the “inhibition (INH)” value in series [7] is listed as “Active”. In series [8], the EC50 turned out to be 1.15 nM. Also, the remaining at 3 h, 1 µM in series [9] is 104%. Also, in series [11], the Tmax was 2 h. In addition, in series [12], the half-life at 1 µM came to 182 min. Besides, the Emax in series [13] was determined as 37.1 bpm. In addition, the Papp B→A at 10 µM in series [15] came out at 8 ×10⁻⁶ cm/s. In series [18], the solubility was 40 µg/mL (≈ 106 µM). In series [19], this compound gave a logD of 2.35. Also, the Stability entry in [20] is on record as “Stable”.

On to `CNC(=O)C(=O)NCCCC/C=C\CCCCCCCOCC(=O)O`, for which the hepatocyte CLint at 1 µM in [1] amounted to 2.48 µL/min/1e6 cells. In addition, the inhibition in [2] and in series [4] was 0.8% throughout. Also, in series [3], the fraction unbound at 1 h, 10 µM was 0.0063. The IC50 in series [5] was over 50 µM; in [10], over 50 µM; in series [14] it was over 50 µM; in series [16], 46.2 µM; in series [17] it was over 50 µM. In [6], the Papp A→B at 10 µM is 28.2 ×10⁻⁶ cm/s. Moreover, in [7], the “inhibition (INH)” value was “Not Active”. For the same compound, the EC50 in series [8] was 1.41 nM. Besides, in series [9], the remaining at 3 h, 1 µM amounted to 102%. Besides, the Tmax in series [11] stood at 1.6 h. The half-life at 1 µM in series [12] stood at 350 min. For the same compound, the Emax in series [13] is recorded as 36.7 bpm. Further, in series [15], the Papp B→A at 10 µM stood at 15.8 ×10⁻⁶ cm/s. In addition, in series [18], the solubility stood at 1960 µg/mL (≈ 5500 µM). In series [19], this compound registered a logD of -0.03. In addition, the Stability result in series [20] is recorded as “Stable”.

In the case of `CNC(=O)C(=O)NCCCC/C=C\CCCCCCCCCC(=O)O`, the hepatocyte CLint at 1 µM in series [1] turned out to be 16.5 µL/min/1e6 cells. Besides, the inhibition was -8.3% in series [2] and -4.1% in [4]. Also, in [3], the fraction unbound at 1 h, 10 µM was 0.0009. For the same compound, the IC50 in [5], in series [10], in series [14], in [16] and in [17] was over 50 µM each time. The Papp A→B at 10 µM in [6] came to 5.3 ×10⁻⁶ cm/s. Moreover, the “inhibition (INH)” value in [7] is reported as “Not Active”. Further, the EC50 in [8] came to 5.69 nM. The remaining at 3 h, 1 µM in [9] was 85.3%. Moreover, the Tmax in series [11] stood at 1.6 h. In [12], the half-life at 1 µM was found to be 52.4 min. The Emax in series [13] was determined as 38.2 bpm. In [15], the Papp B→A at 10 µM was found to be 2.3 ×10⁻⁶ cm/s. Moreover, the solubility in [18] was 80 µg/mL (≈ 226 µM). For the same compound, the logD in series [19] is 2.01. The Stability entry in series [20] is “Stable”.

The inhibition is the change of the read-out against control, counted positive when it falls. What is called IC50 is the midpoint of a concentration-inhibition curve. For orientation: Papp A→B means how fast a substance crosses the layer from the apical side. Broadly, the EC50 is the concentration that produces a half-maximal response. As a reminder, the Tmax is the time at which the peak concentration occurs. What is called half-life is the time in which the quantity being followed falls by half. The term Papp B→A denotes how fast a substance crosses the layer from the basolateral side. In general, solubility refers to how much of the substance goes into solution per volume. As a reminder, the logD is lipophilicity at a set pH, counting ionised and neutral species.
